In patent US6960614B2, “Oxygenated esters of 4-lodo phenylamino benzhydroxamic acids” (Warner-Lambert Company, priority 2000, dated 2005):
Structures can show the parent of a compound that is named as a salt.

Tested on: MEK
Assay: Cellular Assay for Measuring MEK Inhibition (inhibition of ERK phosphorylation in C26 cells, Western blot)
Format: cell-based, murine
Conditions: for IC50: inhibition of ERK phosphorylation in murine colon 26 (C26) carcinoma cells, determined graphically from dose response curve; for % Inhibition @ 0.1 μM / % Inhibition @ 1 μM: ERK phosphorylation in C26 cells
Procedure: The evaluation of the compounds as MEK inhibitors was performed in an assay that measures their ability to inhibit phosphorylation of MAP kinase […]) in murine colon 26 (C26) carcinoma cells. Since ERK1 and ERK2 represent the only known substrates for MEK, measurement of inhibition of ERK phosphorylation in cells provides direct readout of cellular MEK inhibition by the compounds of the invention. Briefly, the assay involves treating exponentially growing C26 cells with varying concentrations of the test compound (or vehicle control) for […] at 37° C. Cells are then rinsed free of compound/vehicle and lysed in a solution containing 70 mM NaCl, 50 mM glycerol phosphate, 10 mM HEPES, pH 7.4, 1% Triton X-100, 1 mM Na3VO4, 100 μM PMSF, 10 μM leupeptin and 10 μM pepstatin. Supernatants are then subjected to gel electrophoresis and Western blotting using a primary antibody recognizing dually phosphorylated ERK1 and ERK2. To evaluate total MAPK levels, blots were subsequently ‘stripped’ and re-probed with a 1:1 mixture of polyclonal antibodies recognizing unphosphorylated ERK1 and ERK2.

Q: For `O=C(NOCCO)c1ccc(F)cc1Nc1ccc(I)cc1Cl` [Example 4, 2-(2-Chloro-4-iodo-phenylamino)-4-fluoro-N-(2-hydroxy-ethoxy)-benzamide], which IC50 is on record?
A: 2 nM

Q: `Cc1cc(I)ccc1Nc1cc(F)ccc1C(=O)NOCCO` [Example 5, 4-Fluoro-N-(2-hydroxy-ethoxy)-2-(4-iodo-2-methyl-phenylamino)-benzamide] was tested. Which IC50 did it give?
A: 3 nM

Q: `O=C(NOCCO)c1cc(F)c(F)cc1Nc1ccc(I)cc1Cl` [Example 17, 2-(2-Chloro-4-iodo-phenylamino)-4,5-difluoro-N-(2-hydroxy-ethoxy)-benzamide] was tested. Which IC50 did it give?
A: 45 nM

Q: How did the IC50 turn out when `O=C(NOCCCO)c1ccc(F)c(F)c1Nc1ccc(I)cc1F` [Example 32, 3,4-Difluoro-2-(2-fluoro-4-iodo-phenylamino)-N-(3-hydroxy-propoxy)-benzamide] was run?
A: 4.4 nM

Q: For `O=C(NOCC(O)CO)c1cc(Br)c(F)c(F)c1Nc1ccc(I)cc1F` (centres unmarked) [Example 40, 5-Bromo-N-(2,3-dihydroxy-propoxy)-3,4-difluoro-2-(2-fluoro-4-iodo-phenylamino)-benzamide], which IC50 is on record?
A: 1.4 nM

Q: `O=C(NOC[C@H](O)CO)c1cc(Cl)c(F)c(F)c1Nc1ccc(I)cc1F` [Example 53] was tested. Which IC50 did it give?
A: 1.2 nM

Q: Which IC50 does the source give for `O=C(NOCCNc1ccccc1)c1ccc(F)c(F)c1Nc1ccc(I)cc1Cl` [Example 77, 2-(2-Chloro-4-iodo-phenylamino)-3,4-difluoro-N-(2-phenylamino-ethoxy)-benzamide] here?
A: 240 nM

Q: How did the IC50 turn out when `CNCCONC(=O)c1ccc(F)c(F)c1Nc1ccc(I)cc1F` [Example 79, 3,4-Difluoro-2-(2-fluoro-4-iodo-phenylamino)-N-(2-methylamino-ethoxy)-benzamide, hydrochloride salt] was run?
A: 20 nM

Q: How did the IC50 turn out when `Cc1cc(I)ccc1Nc1c(C(=O)NOCCNCC(F)(F)F)ccc(F)c1F` [Example 80, 3,4-Difluoro-2-(4-iodo-2-methyl-phenylamino)-N-[2-(2,2,2-trifluoro-ethylamino)-ethoxy]-benzamide; hydrochloride] was run?
A: 490 nM

Q: For `CN(OCCO)C(=O)c1ccc(F)cc1Nc1ccc(I)cc1Cl` [Example 81, 2-(2-Chloro-4-iodo-phenylamino)-4-fluoro-N-(2-hydroxy-ethoxy)-N-methyl-benzamide], which IC50 is on record?
A: 134 nM

Q: How did the IC50 turn out when `CC(=O)OCCONC(=O)c1cc(F)c(F)c(F)c1Nc1ccc(I)cc1C` [Example 82, Acetic acid 2-({1-[3,4,5-trifluoro-2-(4-iodo-2-methyl-phenylamino)-phenyl]-methanoyl}-aminooxy)-ethyl ester] was run?
A: > 1000 nM

Q: Which IC50 does the source give for `O=C(NOCC(O)CO)c1ccc(F)c(F)c1Nc1ccc(I)cc1Cl` (centres unmarked) [Example 86, 2-(2-Chloro-4-iodo-phenylamino)-N-(2,3-dihydroxy-propoxy)-3,4-difluoro-benzamide] here?
A: 19 nM

Q: Which IC50 does the source give for `O=C(NOCC(O)CO)c1cc(F)c(F)c(F)c1Nc1ccc(I)cc1Cl` (centres unmarked) [Example 87, 2-(2-Chloro-4-iodo-phenylamino)-N-(2,3-dihydroxy-propoxy)-3,4,5-trifluoro-benzamide] here?
A: 25 nM

Q: How did the IC50 turn out when `O=C(NOCC(O)CO)c1cc(Br)c(F)c(F)c1Nc1ccc(I)cc1Cl` (centres unmarked) [Example 88, 5-Bromo-2-(2-chloro-4-iodo-phenylamino)-N-(2,3-dihydroxy-propoxy)-3,4-difluoro-benzamide] was run?
A: 110 nM

Q: How did the IC50 turn out when `Cc1cc(I)ccc1Nc1c(C(=O)NOCC(O)CO)ccc(F)c1F` (centres unmarked) [Example 89, N-(2,3-Dihydroxy-propoxy)-3,4-difluoro-2-(4-iodo-2-methyl-phenylamino)-benzamide] was run?
A: 12 nM

Q: Which IC50 does the source give for `Cc1cc(I)ccc1Nc1c(C(=O)NOCC(O)CO)cc(F)c(F)c1F` (centres unmarked) [Example 90, N-(2,3-Dihydroxy-propoxy)-3,4,5-trifluoro-2-(4-iodo-2-methyl-phenylamino)-benzamide] here?
A: 40 nM

Q: Which results are given for `Cc1cc(I)ccc1Nc1c(C(=O)NOCC(O)CO)cc(Br)c(F)c1F` (centres unmarked) [Example 91, 5-Bromo-N-(2,3-dihydroxy-propoxy)-3,4-difluoro-2-(4-iodo-2-methyl-phenylamino)-benzamide]?
A: % Inhibition @ 0.1 μM: 89.4%; % Inhibition @ 1 μM: 98.9%

Q: What does the source list for `O=C(NOCCC(O)CO)c1ccc(F)c(F)c1Nc1ccc(I)cc1Cl` (centres unmarked) [Example 92, 2-(2-Chloro-4-iodo-phenylamino)-N-(3,4-dihydroxy-butoxy)-3,4-difluoro-benzamide]?
A: % Inhibition @ 0.1 μM: 51.8%; % Inhibition @ 1 μM: 92.4%

Q: Which results are given for `O=C(NOCCC(O)CO)c1cc(F)c(F)c(F)c1Nc1ccc(I)cc1Cl` (centres unmarked) [Example 93, 2-(2-Chloro-4-iodo-phenylamino)-N-(3,4-dihydroxy-butoxy)-3,4,5-trifluoro-benzamide]?
A: % Inhibition @ 0.1 μM: 4%; % Inhibition @ 1 μM: 79.1%

Q: For `O=C(NOCCC(O)CO)c1cc(Br)c(F)c(F)c1Nc1ccc(I)cc1Cl` (centres unmarked) [Example 94, 5-Bromo-2-(2-chloro-4-iodo-phenylamino)-N-(3,4-dihydroxy-butoxy)-3,4-difluoro-benzamide], which IC50 is on record?
A: 280 nM

Q: With `Cc1cc(I)ccc1Nc1c(C(=O)NOCCC(O)CO)ccc(F)c1F` (centres unmarked) [Example 95, N-(3,4-Dihydroxy-butoxy)-3,4-difluoro-2-(4-iodo-2-methyl-phenylamino)-benzamide] as the molecule, how does the IC50 read?
A: 190 nM

Q: `Cc1cc(I)ccc1Nc1c(C(=O)NOCCC(O)CO)cc(F)c(F)c1F` (centres unmarked) [Example 96, N-(3,4-Dihydroxy-butoxy)-3,4,5-trifluoro-2-(4-iodo-2-methyl-phenylamino)-benzamide] was tested. Which “% Inhibition @ 0.1 μM” value did it give?
A: 35%

Q: What about the “% Inhibition @ 1 μM” value of the same molecule?
A: 87.1%

Q: What does the source list for `Cc1cc(I)ccc1Nc1c(C(=O)NOCCC(O)CO)cc(Br)c(F)c1F` (centres unmarked) [Example 97, 5-Bromo-N-(3,4-dihydroxy-butoxy)-3,4-difluoro-2-(4-iodo-2-methyl-phenylamino)-benzamide]?
A: % Inhibition @ 0.1 μM: 30.1%; % Inhibition @ 1 μM: 91.9%

Q: `O=C(NOCCCO)c1cc(Br)c(F)c(F)c1Nc1ccc(I)cc1Cl` [Example 98, 5-Bromo-2-(2-chloro-4-iodo-phenylamino)-3,4-difluoro-N-(3-hydroxy-propoxy)-benzamide] was tested. Which IC50 did it give?
A: 11 nM

Q: For `O=C(NOCCCO)c1ccc(F)c(F)c1Nc1ccc(I)cc1Cl` [Example 99, 2-(2-Chloro-4-iodo-phenylamino)-3,4-difluoro-N-(3-hydroxy-propoxy)-benzamide], which IC50 is on record?
A: 18 nM

Q: Which IC50 does the source give for `Cc1cc(I)ccc1Nc1c(C(=O)NOCCCO)cc(F)c(F)c1F` [Example 100, 3,4,5-Trifluoro-N-(3-hydroxy-propoxy)-2-(4-iodo-2-methyl-phenylamino)-benzamide] here?
A: 58 nM

Q: With `O=C(NOCCCO)c1cc(F)c(F)c(F)c1Nc1ccc(I)cc1Cl` [Example 101, 2-(2-Chloro-4-iodo-phenylamino)-3,4,5-trifluoro-N-(3-hydroxy-propoxy)-benzamide] as the molecule, how does the IC50 read?
A: 225 nM

Q: With `Cc1cc(I)ccc1Nc1c(C(=O)NOCCCO)cc(Br)c(F)c1F` [Example 102, 5-Bromo-3,4-difluoro-N-(3-hydroxy-propoxy)-2-(4-iodo-2-methyl-phenylamino)-benzamide] as the molecule, how does the IC50 read?
A: 275 nM

Q: How did the IC50 turn out when `Cc1cc(I)ccc1Nc1c(C(=O)NOCCCO)ccc(F)c1F` [Example 103, 3,4-Difluoro-N-(3-hydroxy-propoxy)-2-(4-iodo-2-methyl-phenylamino)-benzamide] was run?
A: 487 nM

Q: Which IC50 does the source give for `CCC(O)CONC(=O)c1ccc(F)c(F)c1Nc1ccc(I)cc1Cl` (centres unmarked) [Example 104, 2-(2-Chloro-4-iodo-phenylamino)-3,4-difluoro-N-(2-hydroxy-butoxy)-benzamide] here?
A: 24 nM
